Results reported in the NIST ThermoML archive (doi:10.1016/j.jct.2018.01.024).

Assay: mn = molality of the nth substance listed, in mol/kg
Details: Liquid, m2 = 0

O [water] + NC(N)=O
Details	mass density [kg/m3]
274.15 K, 101 kPa, Vibrating tube method	999.899
275.15 K, 101 kPa, Vibrating tube method	999.94
276.15 K, 101 kPa, Vibrating tube method	999.964
277.15 K, 101 kPa, Vibrating tube method	999.972
278.15 K, 101 kPa, Vibrating tube method	999.964
278.15 K, 10000 kPa, Constant-volume piezometry	1004.78
278.15 K, 25000 kPa, Constant-volume piezometry	1011.88
278.15 K, 50000 kPa, Constant-volume piezometry	1023.2
278.15 K, 75000 kPa, Constant-volume piezometry	1033.92
278.15 K, 100000 kPa, Constant-volume piezometry	1044.08
279.15 K, 101 kPa, Vibrating tube method	999.94
280.15 K, 101 kPa, Vibrating tube method	999.901
281.15 K, 101 kPa, Vibrating tube method	999.848
282.15 K, 101 kPa, Vibrating tube method	999.781
283.15 K, 101 kPa, Vibrating tube method	999.699
288.15 K, 10000 kPa, Constant-volume piezometry	1003.66
288.15 K, 25000 kPa, Constant-volume piezometry	1010.42
288.15 K, 50000 kPa, Constant-volume piezometry	1021.21
288.15 K, 75000 kPa, Constant-volume piezometry	1031.47
288.15 K, 100000 kPa, Constant-volume piezometry	1041.23
298.15 K, 10000 kPa, Constant-volume piezometry	1001.46
298.15 K, 25000 kPa, Constant-volume piezometry	1007.99
298.15 K, 50000 kPa, Constant-volume piezometry	1018.44
298.15 K, 75000 kPa, Constant-volume piezometry	1028.38
298.15 K, 100000 kPa, Constant-volume piezometry	1037.86
308.15 K, 10000 kPa, Constant-volume piezometry	998.36
308.15 K, 25000 kPa, Constant-volume piezometry	1004.74
308.15 K, 50000 kPa, Constant-volume piezometry	1014.97
308.15 K, 75000 kPa, Constant-volume piezometry	1024.71
308.15 K, 100000 kPa, Constant-volume piezometry	1034.01
323.15 K, 101 kPa, Vibrating tube method	988.03
323.15 K, 10000 kPa, Constant-volume piezometry	992.3
323.15 K, 25000 kPa, Constant-volume piezometry	998.61
323.15 K, 50000 kPa, Constant-volume piezometry	1008.68
323.15 K, 75000 kPa, Constant-volume piezometry	1018.27
323.15 K, 100000 kPa, Constant-volume piezometry	1027.42
333.15 K, 101 kPa, Vibrating tube method	983.191
